# Assay results reported in publication PMC11876671, “Investigating blood–brain barrier penetration and neurotoxicity of natural products for central nervous system drug development” (Scientific Reports, 2025).
# Like-named read-outs stand apart in the source and are kept apart here.
# Key:
# [1] = test system: GFP-labeled iPSC-derived human cortical glutamatergic neurons; assay: cells; assay type: cell-based; details: for inhibition of cortical neurite outgrowth (total neurite length): 24 and 48 h treatment, in words
# [2] = test system: human glial and neuroblastoma cell lines; details: malignant glioma tumor cells; cited from earlier work
# [3] = in vitro; details: PAMPA, PAMPA-BBB Pe
# [4] = test system: GFP-labeled iPSC-derived human cortical glutamatergic neurons; details: for AC50: read-out: Viability AC50 (48hr); for effect on number of objects: in words
# [5] = test system: glioblastoma multiforme (GBM); details: mouse, in vivo, ip; cited from earlier work
# [6] = test system: GFP-labeled iPSC-derived human cortical glutamatergic neurons; assay: cells; details: Neuron, 48 h
# [7] = test system: offspring neurogenesis; details: rat, in vivo, po; cited from earlier work
# [8] = Homo sapiens, Neuron, rounded values, read-out: AC50 (neurite outgrowth inhibition)
# [9] = Homo sapiens, Neuron, total neurite length, 48 h treatment, read-out: TNL AC50 (48 h)
# [10] = Table 1, 60 min, room temperature, 0.05 mM
# [11] = Table S2: compounds exhibiting moderate to high PAMPA-BBB permeability
# [12] = Table S1, 60 min, room temperature, 0.05 mM
# [13] = read-out: Viability AC50 (48 h)
# [14] = Homo sapiens, Neuron, Table S1, total neurite length, 48 hr, head prints no unit, µM per Table 1 and Fig. 5, read-out: TNL AC50 (48 hr)
# [15] = read-out: Viability AC50 (48hr)
compound,measurement,setting,value
C/C=C(\C)C(=O)N[C@@H](c1ccccc1)[C@@H](O)C(=O)O[C@H]1C[C@@]2(O)[C@@H](OC(=O)c3ccccc3)[C@@H]3[C@]4(OC(C)=O)CO[C@@H]4C[C@H](O)[C@@]3(C)C(=O)[C@H](OC(C)=O)C(=C1C)C2(C)C [Cephalomannine],AC50,[1]; [8],0.7 µM
same,AC50,[1]; [9],0.688 µM
same,cytotoxicity relative to taxol (less cytotoxic),[2],~ 35%
same,PAMPA-BBB Pe,[10],78.57 10 × 10^− 6 cm/sec
same,PAMPA-BBB Pe,[11],79 10^-6 cm/sec
same,Papp,[3]; [12],78.6 ×10⁻⁶ cm/s
same,Viability AC50 (48 h),[4]; 48 h treatment,inactive
CC(=O)O[C@H]1[C@H]2O[C@]23[C@@H]2CC[C@@H]4C[C@@H](O)CC[C@]4(C)[C@H]2CC[C@]3(C)[C@H]1c1ccc(=O)oc1 [Cinobufagin],AC50,"[1]; Homo sapiens, Neuron, 48 h, read-out: TNL AC50 (48 h)",0.618 µM
same,AC50,"[1]; Homo sapiens, Neuron, read-out: AC50 (neurite outgrowth inhibition)",0.6 µM
same,decrease in luminescence intensity of the brain tumor,[5],70%
same,AC50,[6]; [13],0.093 µM
same,Papp,[3],45.4 ×10⁻⁶ cm/s
"COc1ccc(-c2cc(=O)c3ccccc3o2)cc1OC [3’,4’-dimethoxyflavone]",AC50,[1]; [8],0.7 µM
same,AC50,[1]; [9],0.759 µM
same,PAMPA-BBB Pe,[10],249.21 10 × 10^− 6 cm/sec
same,PAMPA-BBB Pe,[11],249 10^-6 cm/sec
same,Papp,[3]; [12],249 ×10⁻⁶ cm/s
same,Viability AC50 (48 h),[4]; 48 h treatment,inactive
COc1cc(-c2cc(=O)c3c(O)cc(O)cc3o2)ccc1O [Chrysoeriol],AC50,[1]; [8],2.2 µM
same,AC50,[1]; [9],2.22 µM
same,PAMPA-BBB Pe,[10],178.56 10 × 10^− 6 cm/sec
same,Papp,[3]; [12],179 ×10⁻⁶ cm/s
same,Viability AC50 (48 h),[4]; 48 h treatment,inactive
"2 ,4 -DIHYDROXYCHALCONE",AC50,"[1]; Table S1, total neurite length, 48 hr, head prints no unit, µM per Table 1 and Fig. 5, read-out: TNL AC50 (48 hr)",16.9 µM
same,PAMPA-BBB Pe,[12],222.92 10^-6 cm/sec
same,AC50,"[4]; Table S1, 48 hr, head prints no unit, µM per Table 1 and Fig. 5",20.9 µM
COc1cc2c(c3oc4cccc(O)c4c(=O)c13)[C@@H]1C=CO[C@@H]1O2 [Sterigmatocystin],AC50,[1]; read-out: AC50 (neurite outgrowth inhibition),2.3 µM
same,AC50,[1]; read-out: TNL AC50 (48 h),2.32 µM
same,AC50,[1]; read-out: TNL AC50 (48 hr),2.32 µM
same,PAMPA-BBB Pe,PAMPA,221 10 × 10^− 6 cm/sec
same,Papp,[3],221 ×10⁻⁶ cm/s
same,adverse effects on offspring neurogenesis,[7],no adverse effects
same,Viability AC50 (48 h),[4],inactive
CC1=CC(=O)c2c(O)cccc2C1=O [Plumbagin],inhibition of cortical neurite outgrowth (total neurite length),[1],inhibited cortical neurite outgrowth
same,AC50,[1]; [8],0.9 µM
same,AC50,[1]; [9],0.927 µM
same,PAMPA-BBB Pe,[10],68.8 10 × 10^− 6 cm/sec
same,PAMPA-BBB Pe,[11],69 10^-6 cm/sec
same,AC50,[6]; [13],1.32 µM
same,Papp,[3]; [12],68.8 ×10⁻⁶ cm/s
same,effect on number of objects,[4]; 48 h treatment,minimal effects
COc1cc(/C=C/C(=O)N2CCC=CC2=O)cc(OC)c1OC [Piperlongumine],AC50,[1]; [9],3.74 µM
same,PAMPA-BBB Pe,[10],90.26 10 × 10^− 6 cm/sec
same,Papp,[3]; [12],90.3 ×10⁻⁶ cm/s
same,Papp,[3]; [11],90 ×10⁻⁶ cm/s
same,Viability AC50 (48 h),[4]; 48 h treatment,Inactive
CC(/C=C/C(=O)NO)=C\[C@@H](C)C(=O)c1ccc(N(C)C)cc1 [Trichostatin A],AC50,[1]; [8],1.7 µM
same,AC50,[1]; [9],1.66 µM
same,PAMPA-BBB Pe,[10],54.74 10 × 10^− 6 cm/sec
same,PAMPA-BBB Pe,[11],55 10^-6 cm/sec
same,AC50,[6]; [13],0.472 µM
same,Papp,[3]; [12],54.7 ×10⁻⁶ cm/s
COc1cc2c(OC(C)=O)c3c(c(-c4ccc5c(c4)OCO5)c2cc1OC)C(=O)OC3 [NCGC00161918-01],AC50,[1]; [14],3.1 µM
same,PAMPA-BBB Pe,[11],349 10^-6 cm/sec
same,AC50,[6]; [15],9.92 µM
same,Papp,[3]; [12],349 ×10⁻⁶ cm/s
"CC[C@]1(O)C[C@H]2CN(CCc3c([nH]c4ccccc34)[C@@](C(=O)OC)(c3cc4c(cc3OC)N(C=O)[C@H]3[C@@](O)(C(=O)OC)[C@H](OC(C)=O)[C@]5(CC)C=CCN6CC[C@]43[C@@H]65)C2)C1 [Vincristine, reference compound]",AC50,[1]; read-out: TNL AC50 (48 hr),30.4 µM
same,PAMPA-BBB Pe,PAMPA,21.19 10^-6 cm/sec
same,AC50,[4],37.2 µM
C/C(=C\c1csc(C)n1)[C@@H]1C[C@@H]2O[C@]2(C)CCC[C@H](C)[C@H](O)[C@@H](C)C(=O)C(C)(C)[C@@H](O)CC(=O)O1 [Patupilone],AC50,[1]; [14],0.0068 µM
same,AC50,[1]; [9],0.007 µM
same,PAMPA-BBB Pe,[10],10.52 10 × 10^− 6 cm/sec
same,Papp,[3]; [12],10.5 ×10⁻⁶ cm/s
same,Papp,[3]; [11],11 ×10⁻⁶ cm/s
same,Viability AC50 (48 h),[4]; 48 h treatment,inactive
"COc1ccc2c(c1OC)C(=O)O[C@@H]2[C@H]1c2c(cc3c(c2OC)OCO3)CCN1C [Noscapine, reference compound]",AC50,[1]; [14],1.06 µM
same,AC50,[1]; [8],1.1 µM
same,AC50,[1]; [9],1.06 µM
same,PAMPA-BBB Pe,PAMPA,74.54 10 × 10^− 6 cm/sec
same,AC50,[6]; [13],11.6 µM
same,AC50,[6]; [15],11.6 µM
same,Papp,[3],74.5 ×10⁻⁶ cm/s
O=c1oc2c(O)c(O)cc3c(=O)oc4c(O)c(O)cc1c4c23 [Ellagic acid],inhibition of cortical neurite outgrowth (total neurite length),[1],inhibited cortical neurite outgrowth
same,AC50,[1]; [8],3.1 µM
same,AC50,[1]; [9],3.05 µM
same,PAMPA-BBB Pe,[10],119.5 10 × 10^− 6 cm/sec
same,PAMPA-BBB Pe,[11],120 10^-6 cm/sec
same,AC50,[6]; [13],4 µM
same,Papp,[3]; [12],120 ×10⁻⁶ cm/s
same,effect on number of objects,[4]; 48 h treatment,minimal effects
